Reference: the supplement of paper PMC4862054

Columns and labels:
Conditions in all cases: incubation time: 72 h
MDA-MB-231 [1] = assay: normalised viability (% of control), CellTiter-Blue; higher = more viable cells (about 100 = DMSO control)
Procedure, shortened: (§1)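 Compound dissolved in 5 µl medium was pre-loaded into 384-well plates, and breast cancer cell lines in 20 µl suspension were seeded on top and incubated 72 h. After adding 2.5 µl CellTiter-Blue reagent for 2 h at 37 °C, fluorescence was read at 560/590 nm. Plates were normalised to vehicle (100) and a positive kill control (0), with Z'-factor quality control. Each value is normalised viability at a single listed concentration from the series.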

MFM-223 [2] = assay: as above
Procedure, shortened: as §1

CAL-148 [3] = assay: as above
Procedure, shortened: as §1

CAL-85-1 [4] = assay: as above
Procedure, shortened: as §1

SK-BR-3 = assay: as above
Procedure, shortened: as §1

CAL-120 [5] = assay: as above
Procedure, shortened: as §1

HDQ-P1 [6] = assay: as above
Procedure, shortened: as §1

CAL-51 [7] = assay: as above
Procedure, shortened: as §1

MDA-MB-468 = assay: as above
Procedure, shortened: as §1

BT-549 [8] = assay: as above
Procedure, shortened: as §1

BT-474 = assay: drug sensitivity score (DSS), CellTox Green (DSS (AUC-based score)); higher = stronger drug effect (viability inhibition or cytotoxicity); extreme values may be limits of the assay
Procedure, shortened: (§2)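 The drug sensitivity score reflects the area under a fitted dose-response curve. To obtain it, breast cancer cells in 20 µl suspension were seeded into 384-well plates containing compound at 5 concentrations, 10-fold apart over a compound-specific 10,000-fold range, and incubated 72 h. CellTox Green fluorescence (485/520 nm) was read first and CellTiter-Glo luminescence second, after 10 min at room temperature. Each plate was normalised to 0.1 % DMSO and a positive kill control.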

MDA-MB-231 [9] = assay: as above
Procedure, shortened: as §2

MFM-223 [10] = assay: as above
Procedure, shortened: as §2

CAL-148 [11] = assay: as above
Procedure, shortened: as §2

CAL-85-1 [12] = assay: as above
Procedure, shortened: as §2

CAL-120 [13] = assay: as above
Procedure, shortened: as §2

DU-4475 = assay: as above
Procedure, shortened: as §2

HCC1937 = assay: as above
Procedure, shortened: as §2

HCC1143 = assay: as above
Procedure, shortened: as §2

HCC1599 = assay: as above
Procedure, shortened: as §2

MDA-MB-436 = assay: as above
Procedure, shortened: as §2

HDQ-P1 [14] = assay: as above
Procedure, shortened: as §2

Hs578T = assay: as above
Procedure, shortened: as §2

CAL-51 [15] = assay: as above
Procedure, shortened: as §2

BT-549 [16] = assay: as above
Procedure, shortened: as §2

`COc1cc(Nc2c(C#N)cnc3cc(OCCCN4CCN(C)CC4)c(OC)cc23)c(Cl)cc1Cl` [Bosutinib] was tested, and the normalised viability (MDA-MB-231 [1]; 10 nM) was 98.9%, the normalised viability (MDA-MB-231 [1]; 1000 nM) was 142% and the normalised viability (MDA-MB-231 [1]; 10000 nM) was 2.42%. The normalised viability (MFM-223 [2]; 10 nM) was 100%, the normalised viability (MFM-223 [2]; 1000 nM) was 80.8% and the normalised viability (MFM-223 [2]; 10000 nM) was 36.8%. The normalised viability (CAL-148 [3]; 3 nM) was 77.2%, the normalised viability (CAL-148 [3]; 30 nM) was 92.3% and the normalised viability (CAL-148 [3]; 100 nM) was 87.6%. It also gave a normalised viability (CAL-85-1 [4]; 3 nM) of 92.2%, a normalised viability (CAL-85-1 [4]; 30 nM) of 111% and a normalised viability (CAL-85-1 [4]; 100 nM) of 96.8%. It also gave a normalised viability (SK-BR-3; 10 nM) of 99%, a normalised viability (SK-BR-3; 1000 nM) of 86.3% and a normalised viability (SK-BR-3; 10000 nM) of 1.28%. For the same molecule, the normalised viability (CAL-120 [5]; 10 nM) was 87.5%, the normalised viability (CAL-120 [5]; 1000 nM) was 70.5% and the normalised viability (CAL-120 [5]; 10000 nM) was 11.1%. The normalised viability (HDQ-P1 [6]; 3 nM) was 109%, the normalised viability (HDQ-P1 [6]; 30 nM) was 121% and the normalised viability (HDQ-P1 [6]; 100 nM) was 104%. The normalised viability (CAL-51 [7]; 3 nM) was 115%, the normalised viability (CAL-51 [7]; 30 nM) was 114% and the normalised viability (CAL-51 [7]; 100 nM) was 120%. For the same molecule, the normalised viability (MDA-MB-468; 10 nM) was 104%, the normalised viability (MDA-MB-468; 1000 nM) was 95.2% and the normalised viability (MDA-MB-468; 10000 nM) was 14.5%. For the same molecule, the normalised viability (BT-549 [8]; 10 nM) was 91.9%, the normalised viability (BT-549 [8]; 1000 nM) was 95.4% and the normalised viability (BT-549 [8]; 10000 nM) was 6.38%. For the same molecule, the drug sensitivity score (BT-474) was 5.18, the drug sensitivity score (MDA-MB-231 [9]) was 7.99 and the drug sensitivity score (MFM-223 [10]) was 0. The drug sensitivity score (CAL-148 [11]) was 2.51, the drug sensitivity score (CAL-85-1 [12]) was 8.13 and the drug sensitivity score (CAL-120 [13]) was 0. For the same molecule, the drug sensitivity score (DU-4475) was 0, the drug sensitivity score (HCC1937) was 1.87 and the drug sensitivity score (HCC1143) was 0. It also gave a drug sensitivity score (HCC1599) of 0.637, a drug sensitivity score (MDA-MB-436) of 2.19 and a drug sensitivity score (HDQ-P1 [14]) of 3.06. It also gave a drug sensitivity score (Hs578T) of 3.59, a drug sensitivity score (CAL-51 [15]) of 5.81 and a drug sensitivity score (BT-549 [16]) of 1.47.
Molecule `CCN(CC)CCCC(C)Nc1ccnc2cc(Cl)ccc12` (stereo not given) [Chloroquine] has a normalised viability (MDA-MB-231 [1]; 0.99 nM) of 113%, a normalised viability (MDA-MB-231 [1]; 99 nM) of 129% and a normalised viability (MDA-MB-231 [1]; 990 nM) of 98.7%. It also gave a normalised viability (MFM-223 [2]; 0.99 nM) of 101%, a normalised viability (MFM-223 [2]; 99 nM) of 106% and a normalised viability (MFM-223 [2]; 990 nM) of 94.2%. It also gave a normalised viability (CAL-148 [3]; 0.297 nM) of 88.5%, a normalised viability (CAL-148 [3]; 2.97 nM) of 89.1% and a normalised viability (CAL-148 [3]; 9.9 nM) of 89.4%. The normalised viability (CAL-85-1 [4]; 0.297 nM) was 95.5%, the normalised viability (CAL-85-1 [4]; 2.97 nM) was 90% and the normalised viability (CAL-85-1 [4]; 9.9 nM) was 97%. It also gave a normalised viability (SK-BR-3; 0.99 nM) of 103%, a normalised viability (SK-BR-3; 99 nM) of 93.4% and a normalised viability (SK-BR-3; 990 nM) of 101%. For the same molecule, the normalised viability (CAL-120 [5]; 0.99 nM) was 96.1%, the normalised viability (CAL-120 [5]; 99 nM) was 104% and the normalised viability (CAL-120 [5]; 990 nM) was 105%. For the same molecule, the normalised viability (HDQ-P1 [6]; 0.297 nM) was 107%, the normalised viability (HDQ-P1 [6]; 2.97 nM) was 113% and the normalised viability (HDQ-P1 [6]; 9.9 nM) was 116%. The normalised viability (CAL-51 [7]; 0.297 nM) was 94%, the normalised viability (CAL-51 [7]; 2.97 nM) was 92.9% and the normalised viability (CAL-51 [7]; 9.9 nM) was 91.7%. For the same molecule, the normalised viability (MDA-MB-468; 0.99 nM) was 107%, the normalised viability (MDA-MB-468; 99 nM) was 115% and the normalised viability (MDA-MB-468; 990 nM) was 98.4%. It also gave a normalised viability (BT-549 [8]; 0.99 nM) of 88.3%, a normalised viability (BT-549 [8]; 99 nM) of 95.6% and a normalised viability (BT-549 [8]; 990 nM) of 108%. The drug sensitivity score (BT-474) was 14.7, the drug sensitivity score (MDA-MB-231 [9]) was 11.6 and the drug sensitivity score (MFM-223 [10]) was 9.2. It also gave a drug sensitivity score (CAL-148 [11]) of 11.8, a drug sensitivity score (CAL-85-1 [12]) of 7.92 and a drug sensitivity score (CAL-120 [13]) of 4.62. It also gave a drug sensitivity score (DU-4475) of 1.64, a drug sensitivity score (HCC1937) of 5.9 and a drug sensitivity score (HCC1143) of 0. The drug sensitivity score (HCC1599) was 2.54, the drug sensitivity score (MDA-MB-436) was 8.96 and the drug sensitivity score (HDQ-P1 [14]) was 5.48. The drug sensitivity score (Hs578T) was 8.48, the drug sensitivity score (CAL-51 [15]) was 3.75 and the drug sensitivity score (BT-549 [16]) was 1.78.
With `Cc1nc(C(=O)NCC(=O)O)c(O)c2ccc(Oc3ccccc3)cc12` [FG-4592] the drug sensitivity score (BT-474) was 0, the drug sensitivity score (MDA-MB-231 [9]) was 0 and the drug sensitivity score (MFM-223 [10]) was 0. It also gave a drug sensitivity score (CAL-148 [11]) of 0, a drug sensitivity score (CAL-85-1 [12]) of 0 and a drug sensitivity score (CAL-120 [13]) of 0. It also gave a drug sensitivity score (DU-4475) of 0, a drug sensitivity score (HCC1937) of 0 and a drug sensitivity score (HCC1143) of 0. It also gave a drug sensitivity score (HCC1599) of 0, a drug sensitivity score (MDA-MB-436) of 0 and a drug sensitivity score (HDQ-P1 [14]) of 0. The drug sensitivity score (Hs578T) was 0, the drug sensitivity score (CAL-51 [15]) was 0 and the drug sensitivity score (BT-549 [16]) was 0.
`O=C(O)CNC(=O)c1c(O)c2ccccc2n(Cc2ccccc2)c1=O` [IOX-2] was tested, and the drug sensitivity score (BT-474) was 0, the drug sensitivity score (MDA-MB-231 [9]) was 0 and the drug sensitivity score (MFM-223 [10]) was 0. For the same molecule, the drug sensitivity score (CAL-148 [11]) was 0, the drug sensitivity score (CAL-85-1 [12]) was 0 and the drug sensitivity score (CAL-120 [13]) was 0. It also gave a drug sensitivity score (DU-4475) of 0, a drug sensitivity score (HCC1937) of 0 and a drug sensitivity score (HCC1143) of 0. The drug sensitivity score (HCC1599) was 0, the drug sensitivity score (MDA-MB-436) was 0 and the drug sensitivity score (HDQ-P1 [14]) was 3.99. It also gave a drug sensitivity score (Hs578T) of 0, a drug sensitivity score (CAL-51 [15]) of 0 and a drug sensitivity score (BT-549 [16]) of 2.91.
Molecule `CC[C@H](CO)Nc1nc(NCc2ccccc2)c2ncn(C(C)C)c2n1` [Seliciclib] has a drug sensitivity score (BT-474) of 0, a drug sensitivity score (MDA-MB-231 [9]) of 0 and a drug sensitivity score (MFM-223 [10]) of 1.03. The drug sensitivity score (CAL-148 [11]) was 0, the drug sensitivity score (CAL-85-1 [12]) was 0 and the drug sensitivity score (CAL-120 [13]) was 0. It also gave a drug sensitivity score (DU-4475) of 0, a drug sensitivity score (HCC1937) of 0 and a drug sensitivity score (HCC1143) of 0. The drug sensitivity score (HCC1599) was 0, the drug sensitivity score (MDA-MB-436) was 0 and the drug sensitivity score (HDQ-P1 [14]) was 0. The drug sensitivity score (Hs578T) was 1.26, the drug sensitivity score (CAL-51 [15]) was 0 and the drug sensitivity score (BT-549 [16]) was 0.
In the case of `C=CCN(/C=C1/C(=O)O[C@H](COC)[C@@]2(C)C1=C(O)C(=O)C1=C2[C@H](OC(C)=O)C[C@]2(C)C(=O)CC[C@@H]12)CC=C` [Sonolisib], the drug sensitivity score (BT-474) is reported as 0, the drug sensitivity score (MDA-MB-231 [9]) is reported as 0 and the drug sensitivity score (MFM-223 [10]) is reported as 0. It also gave a drug sensitivity score (CAL-148 [11]) of 0, a drug sensitivity score (CAL-85-1 [12]) of 2.28 and a drug sensitivity score (CAL-120 [13]) of 0. The drug sensitivity score (DU-4475) was 0, the drug sensitivity score (HCC1937) was 0 and the drug sensitivity score (HCC1143) was 0. It also gave a drug sensitivity score (HCC1599) of 0, a drug sensitivity score (MDA-MB-436) of 0 and a drug sensitivity score (HDQ-P1 [14]) of 0. The drug sensitivity score (Hs578T) was 0, the drug sensitivity score (CAL-51 [15]) was 0 and the drug sensitivity score (BT-549 [16]) was 0.
Molecule `O=[N+]([O-])c1ccc2c(c1)S(=O)(=O)C=C2` [Stattic] has a drug sensitivity score (BT-474) of 15.9, a drug sensitivity score (MDA-MB-231 [9]) of 11.6 and a drug sensitivity score (MFM-223 [10]) of 16.3. It also gave a drug sensitivity score (CAL-148 [11]) of 9.88, a drug sensitivity score (CAL-85-1 [12]) of 19.7 and a drug sensitivity score (CAL-120 [13]) of 2.06. The drug sensitivity score (DU-4475) was 0, the drug sensitivity score (HCC1937) was 25 and the drug sensitivity score (HCC1143) was 6.3. The drug sensitivity score (HCC1599) was 0, the drug sensitivity score (MDA-MB-436) was 6.1 and the drug sensitivity score (HDQ-P1 [14]) was 2.09. For the same molecule, the drug sensitivity score (Hs578T) was 18.1, the drug sensitivity score (CAL-51 [15]) was 16.9 and the drug sensitivity score (BT-549 [16]) was 19.8.
